In US20250230193A1, “CYCLIC COMPOUND HAVING SELECTIVE KRAS INHIBITORY EFFECT ON HRAS AND NRAS” (CHUGAI SEIYAKU KABUSHIKI KAISHA, priority 2022, published 2025):

What was measured:
[1] = molecular target: GDP-bound NRAS wild-type protein (Homo sapiens, UniProt P01111); test: Binding to NRAS by surface plasmon resonance (SPR), Single Cycle Kinetics; details: KD ratio NRAS/KRAS, SPR, GDP-bound wild-type proteins
[2] = molecular target: GDP-bound HRAS wild-type protein (Homo sapiens, UniProt P01112); test: Binding to HRAS by surface plasmon resonance (SPR), Single Cycle Kinetics; details: KD ratio HRAS/KRAS, SPR, GDP-bound wild-type proteins
Chain of GDP-bound HRAS wild-type protein (P01112 whole entry): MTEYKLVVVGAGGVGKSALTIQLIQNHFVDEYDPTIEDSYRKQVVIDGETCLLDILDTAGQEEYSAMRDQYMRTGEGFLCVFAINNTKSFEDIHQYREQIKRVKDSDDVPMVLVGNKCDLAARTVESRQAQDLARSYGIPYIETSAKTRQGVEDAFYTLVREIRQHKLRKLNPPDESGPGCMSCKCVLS

Chain of GDP-bound NRAS wild-type protein (P01111 whole entry): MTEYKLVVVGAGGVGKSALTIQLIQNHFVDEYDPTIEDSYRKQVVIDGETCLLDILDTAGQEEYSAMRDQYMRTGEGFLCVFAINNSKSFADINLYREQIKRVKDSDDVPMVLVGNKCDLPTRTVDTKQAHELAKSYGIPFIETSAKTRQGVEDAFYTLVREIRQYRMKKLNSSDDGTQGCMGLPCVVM

| SMILES | NRAS/KRAS (ratio of KD value with respect to GDP-bound NRAS wild-type protein to KD value with respect to KRAS) [1] | HRAS/KRAS (ratio of KD value with respect to GDP-bound HRAS wild-type protein to KD value with respect to KRAS) [2] |
| --- | --- | --- |
| CC[C@H](C)[C@@H]1NC(=O)[C@@H]2CCC/C=C/c3ccc(cc3)C[C@@H](C(=O)N(C)CC(=O)N[C@@H](CCc3ccc(Cl)c(Cl)c3)C(=O)N3C[C@H](OC4CCCC4)C[C@H]3C(=O)NC3(CC(C)(C)C3)C(=O)N(C)[C@@H](C3CCCC3)C(=O)N(C)[C@H](C(=O)N3CCCC3)CC(=O)N2C)N2CC/C=C\C[C@@H](C2=O)N(C)C(=O)CN(C)C1=O [PP3054] | A (a compound having 10 or more and less than 20 is denoted as A) | A (a compound having 10 or more and less than 20 is denoted as A) |
| CCO[C@@H]1C[C@H]2C(=O)NC3(CC(C)(C)C3)C(=O)N(C)[C@@H](C3CCCC3)C(=O)N(C)[C@H](C(=O)N(C)CC)CC(=O)N(C)[C@H]3C/C=C/c4ccc(cc4)C[C@@H](C(=O)N(C)CC(=O)N[C@@H](CCc4ccc(Cl)c(Cl)c4)C(=O)N2C1)N1CC/C=C\C[C@@H](C1=O)N(C)C(=O)CN(C)C(=O)[C@H]([C@@H](C)CC)NC3=O [PP3056] | A (a compound having 10 or more and less than 20 is denoted as A) | A (a compound having 10 or more and less than 20 is denoted as A) |
| CCO[C@@H]1C[C@H]2C(=O)NC3(CC(C)(C)C3)C(=O)N(C)[C@@H](C3CCCC3)C(=O)N(C)[C@H](C(=O)N(C)C)CC(=O)N(C)[C@H]3CCCCC/C=C/c4ccc(cc4)C[C@@H](C(=O)N(C)CC(=O)N[C@@H](CCc4ccc(Cl)c(Cl)c4)C(=O)N2C1)N1CC/C=C\C[C@@H](C1=O)N(C)C(=O)CN(C)C(=O)[C@H]([C@@H](C)CC)NC3=O [PP3057] | A (a compound having 10 or more and less than 20 is denoted as A) | B (a compound having 3 or more and less than 10 is denoted as B) |
| CC[C@H](C)[C@@H]1NC(=O)[C@@H]2CCC/C=C/c3ccc(cc3)C[C@@H](C(=O)N(C)CC(=O)N[C@@H](CCc3ccc(Cl)c(Cl)c3)C(=O)N3C[C@H](OC4CCC4)C[C@H]3C(=O)NC3(CC(C)(C)C3)C(=O)N(C)[C@@H](C3CCCC3)C(=O)N(C)[C@H](C(=O)N(C)CC)CC(=O)N2C)N2CC/C=C\C[C@@H](C2=O)N(C)C(=O)CN(C)C1=O [PP3058] | A (a compound having 10 or more and less than 20 is denoted as A) | A (a compound having 10 or more and less than 20 is denoted as A) |
| CCO[C@@H]1C[C@H]2C(=O)N(C)C3(CC(C)(C)C3)C(=O)N(C)[C@@H](C3CCCC3)C(=O)N(C)[C@H](C(=O)N(C)C)CC(=O)N(C)[C@H]3CCC/C=C/c4ccc(cc4)C[C@@H](C(=O)N(C)CC(=O)N[C@@H](CCc4ccc(Cl)c(Cl)c4)C(=O)N2C1)N1CC/C=C\C[C@@H](C1=O)N(C)C(=O)CN(C)C(=O)[C@H]([C@@H](C)CC)NC3=O [PP3059] | A (a compound having 10 or more and less than 20 is denoted as A) | A (a compound having 10 or more and less than 20 is denoted as A) |
| CCO[C@@H]1C[C@H]2C(=O)N(C)C3(CC(C)(C)C3)C(=O)N(C)[C@@H](C3CCCC3)C(=O)N(C)[C@H](C(=O)N(C)C)CC(=O)N(C)[C@H]3CCC/C=C/c4ccc(cc4)C[C@@H](C(=O)N(C)CC(=O)N[C@@H](CCc4cc(F)c(C(F)(F)F)c(F)c4)C(=O)N2C1)N1CC/C=C\C[C@@H](C1=O)N(C)C(=O)CN(C)C(=O)[C@H]([C@@H](C)CC)NC3=O [PP3060] | B (a compound having 3 or more and less than 10 is denoted as B) | B (a compound having 3 or more and less than 10 is denoted as B) |
| CCO[C@@H]1C[C@H]2C(=O)N(C)C3(CC(C)(C)C3)C(=O)N(C)[C@@H](C3CCCC3)C(=O)N(C)[C@H](C(=O)N(C)C)CC(=O)N(C)[C@H]3CCC/C=C/c4ccc(cc4)C[C@@H](C(=O)N(C)CC(=O)N[C@@H](CCc4ccc(Cl)c(Cl)c4)C(=O)N2C1)N1CC/C=C\C[C@@H](C1=O)N(C)C(=O)CN(C1CC1)C(=O)[C@H]([C@@H](C)CC)NC3=O [PP3061] | A (a compound having 10 or more and less than 20 is denoted as A) | A (a compound having 10 or more and less than 20 is denoted as A) |
| CCO[C@@H]1C[C@H]2C(=O)N(C)C3(CC(C)(C)C3)C(=O)N(C)[C@@H](C3CCCC3)C(=O)N(C)[C@H](C(=O)N(C)C)CC(=O)N(C)[C@H]3CCCC/C=C/c4ccc(cc4)C[C@@H](C(=O)N(C)CC(=O)N[C@@H](CCc4ccc(Cl)c(Cl)c4)C(=O)N2C1)N1CC/C=C\C[C@@H](C1=O)N(C)C(=O)CN(C)C(=O)[C@H]([C@@H](C)CC)NC3=O [PP3062] | A (a compound having 10 or more and less than 20 is denoted as A) | A (a compound having 10 or more and less than 20 is denoted as A) |
| CCCO[C@@H]1C[C@H]2C(=O)NC3(CC(C)(C)C3)C(=O)N(C)[C@@H](C(CC)CC)C(=O)N(C)[C@H](C(=O)N(C)C)CC(=O)N(C)[C@H]3CCCc4ccc(cc4)C[C@@H](C(=O)N(C)CC(=O)N[C@@H](CCc4ccc(C(F)(F)F)c(OC)c4)C(=O)N2C1)N1CC/C=C\C[C@@H](C1=O)N(C)C(=O)CN(C)C(=O)[C@H]([C@@H](C)CC)NC3=O [PP3063] | B (a compound having 3 or more and less than 10 is denoted as B) | B (a compound having 3 or more and less than 10 is denoted as B) |
| CCCO[C@@H]1C[C@H]2C(=O)NC3(CC(C)(C)C3)C(=O)N(C)[C@@H](C3CCCC3)C(=O)N(C)[C@H](C(=O)N3CCCCC3)CC(=O)N(C)[C@H]3CCCc4ccc(cc4)C[C@@H](C(=O)N(C)CC(=O)N[C@@H](CCc4ccc(C(F)(F)F)c(OC)c4)C(=O)N2C1)N1CC/C=C\C[C@@H](C1=O)N(C)C(=O)CN(C)C(=O)[C@H]([C@@H](C)CC)NC3=O [PP3064] | B (a compound having 3 or more and less than 10 is denoted as B) | B (a compound having 3 or more and less than 10 is denoted as B) |
| CCCO[C@@H]1C[C@H]2C(=O)NC3(CC(C)(C)C3)C(=O)N(C)[C@@H](C3CCCC3)C(=O)N(C)[C@H](C(=O)N3CCCC3)CC(=O)N(C)[C@H]3CCCc4ccc(cc4)C[C@@H](C(=O)N(C)CC(=O)N[C@@H](CCc4ccc(C(F)(F)F)c(OC)c4)C(=O)N2C1)N1CC/C=C\C[C@@H](C1=O)N(C)C(=O)CN(C)C(=O)[C@H]([C@@H](C)CC)NC3=O [PP3065] | A (a compound having 10 or more and less than 20 is denoted as A) | B (a compound having 3 or more and less than 10 is denoted as B) |
| CCO[C@@H]1C[C@H]2C(=O)NC3(CC(C)(C)C3)C(=O)N(C)[C@@H](C3CCCC3)C(=O)N(C)[C@H](C(=O)N(C)C)CC(=O)N(C)[C@H]3CCCCCCc4ccc(cc4)C[C@@H](C(=O)N(C)CC(=O)N[C@@H](CCc4ccc(C(F)(F)F)c(OC)c4)C(=O)N2C1)N1CC/C=C\C[C@@H](C1=O)N(C)C(=O)CN(C)C(=O)[C@H]([C@@H](C)CC)NC3=O [PP3066] | A (a compound having 10 or more and less than 20 is denoted as A) | B (a compound having 3 or more and less than 10 is denoted as B) |
| CC[C@H](C)[C@@H]1NC(=O)[C@@H]2CCCCCCc3ccc(cc3)C[C@@H](C(=O)N(C)CC(=O)N[C@@H](CCc3ccc(C(F)(F)F)c(OC)c3)C(=O)N3C[C@H](OC(C)C)C[C@H]3C(=O)NC3(CC(C)(C)C3)C(=O)N(C)[C@@H](C3CCCC3)C(=O)N(C)[C@H](C(=O)N(C)C)CC(=O)N2C)N2CC/C=C\C[C@@H](C2=O)N(C)C(=O)CN(C)C1=O [PP3067] | A (a compound having 10 or more and less than 20 is denoted as A) | B (a compound having 3 or more and less than 10 is denoted as B) |
| CC[C@H](C)[C@@H]1NC(=O)[C@@H]2CCCCCCc3ccc(cc3)C[C@@H](C(=O)N(C)CC(=O)N[C@@H](CCc3ccc(C(F)(F)F)c(OC)c3)C(=O)N3C[C@H](OC4CCC4)C[C@H]3C(=O)NC3(CC(C)(C)C3)C(=O)N(C)[C@@H](C3CCCC3)C(=O)N(C)[C@H](C(=O)N(C)C)CC(=O)N2C)N2CC/C=C\C[C@@H](C2=O)N(C)C(=O)CN(C)C1=O [PP3068] | A (a compound having 10 or more and less than 20 is denoted as A) | B (a compound having 3 or more and less than 10 is denoted as B) |
| CC[C@H](C)[C@@H]1NC(=O)[C@@H]2CCCCCCc3ccc(cc3)C[C@@H](C(=O)N(C)CC(=O)N[C@@H](CCc3ccc(C(F)(F)F)c(OC)c3)C(=O)N3CC4(CC4)C[C@H]3C(=O)NC3(CC(C)(C)C3)C(=O)N(C)[C@@H](C3CCCC3)C(=O)N(C)[C@H](C(=O)N(C)C)CC(=O)N2C)N2CC/C=C\C[C@@H](C2=O)N(C)C(=O)CN(C)C1=O [PP3069] | A (a compound having 10 or more and less than 20 is denoted as A) | B (a compound having 3 or more and less than 10 is denoted as B) |
| CCO[C@@H]1C[C@H]2C(=O)NC3(CC(C)(C)C3)C(=O)N(C)[C@@H](C3CCCC3)C(=O)N(C)[C@H](C(=O)N(C)C)CC(=O)N(C)[C@H]3CCCCCCc4ccc(cc4)C[C@@H](C(=O)N(C)CC(=O)N[C@@H](CCc4ccc(Cl)c(Cl)c4)C(=O)N2C1)N1CC/C=C\C[C@@H](C1=O)N(C)C(=O)CN(C)C(=O)[C@H]([C@@H](C)CC)NC3=O [PP3071] | A (a compound having 10 or more and less than 20 is denoted as A) | B (a compound having 3 or more and less than 10 is denoted as B) |
